Patent US20080312250A1, “Combination Comprising a Bcrp Inhibitor and 4- (4-Methylpiperazin-1-Ylmethyl)-N-[4-Methyl-3- (4-Pyridin-3-Yl) Pyrimidin-2-Ylamino) Phenyl] -Benzamide” (THE NETHERLANDS CANCER INSTITUTE, priority 2005, published 2008)

Experiments:
murine Bcrp1 = target: T1, murine Bcrp1 (Mus musculus, UniProt Q7TMS5); experiment: Transport of Compound I across MDCKII-Bcrp1 monolayers; assay type: in vitro ADME
T1 construct: expressed in transfected cells; host or cells: MDCKII (Madin-Darby canine kidney strain II) cells, stably transfected
T1 sequence (Q7TMS5 1-657): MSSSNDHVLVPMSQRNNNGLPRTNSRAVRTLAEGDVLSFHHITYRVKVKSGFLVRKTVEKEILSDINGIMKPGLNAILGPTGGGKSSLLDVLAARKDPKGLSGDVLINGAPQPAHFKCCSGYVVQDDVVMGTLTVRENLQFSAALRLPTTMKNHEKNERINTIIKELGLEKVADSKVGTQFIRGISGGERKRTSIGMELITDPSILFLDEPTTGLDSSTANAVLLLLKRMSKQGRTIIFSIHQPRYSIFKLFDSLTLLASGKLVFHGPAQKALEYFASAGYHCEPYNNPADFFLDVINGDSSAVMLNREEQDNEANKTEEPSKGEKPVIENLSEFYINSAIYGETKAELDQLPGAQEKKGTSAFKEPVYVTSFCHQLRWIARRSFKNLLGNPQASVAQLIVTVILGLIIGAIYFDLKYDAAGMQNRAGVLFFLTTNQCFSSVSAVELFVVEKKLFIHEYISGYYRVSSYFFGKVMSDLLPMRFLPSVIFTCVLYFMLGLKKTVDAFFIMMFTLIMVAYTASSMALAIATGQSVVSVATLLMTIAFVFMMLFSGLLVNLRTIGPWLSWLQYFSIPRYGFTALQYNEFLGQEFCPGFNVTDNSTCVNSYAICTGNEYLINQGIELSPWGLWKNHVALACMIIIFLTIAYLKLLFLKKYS
Protocol: Transport across MDCKII monolayers. […] Animals.
Transport of Compound I across MDCKII monolayers. […] To exclude any contribution of P-gp (12), the P-gp inhibitor zosuquidar (5 μM) is added (18).

Bcrp1 = target: T2, Bcrp1 (Mus musculus, UniProt Q7TMS5); experiment: Effect of pantoprazole and elacridar on Bcrp1-mediated transport of Compound I in MDCKII transfected cells; assay type: in vitro ADME, murine; conditions: 1 μM Compound I, zosuquidar 5 μM added for pantoprazole, data not shown
T2 construct: expressed in transfected cells; host or cells: MDCKII (Madin-Darby canine kidney strain II) cells, stably transfected
T2 sequence (Q7TMS5 1-657): T1 sequence (Q7TMS5 1-657)
Protocol: Transport across MDCKII monolayers. The MDCKII (Madin-Darby canine kidney strain II) cells are cultured in Dulbecco's Modified Eagle's Medium supplemented with 10% fetal calf serum and 100 units penicillin/streptomycin per ml. Cells are grown at 37° C. with 5% CO2 under humidifying conditions. […] Animals. […] Mice are housed and handled according to institutional guidelines complying with Dutch legislation.
In the experiments in which the effect of pantoprazole is studied, the P-gp inhibitor zosuquidar (5 μM) is added to exclude any contribution of P-gp.

P-gp = conditions: single dose of elacridar; approximately; cited from earlier work

| Compound | net active transport of Compound I by Bcrp1 (murine Bcrp1; 1 and 10 μM Compound I, MDCKII-Bcrp1 and parental cells, P-gp inhibitor zosuquidar 5 μM added) | concentration above which Bcrp1 transport of Compound I is saturable (murine Bcrp1; MDCKII-Bcrp1, zosuquidar 5 μM added) | effect on Bcrp1-mediated transport of Compound I (Bcrp1) | P-gp inhibition (P-gp) |
| --- | --- | --- | --- | --- |
| Cc1ccc(NC(=O)c2ccc(CN3CCN(C)CC3)cc2)cc1Nc1nccc(-c2cccnc2)n1 [Compound I] | approximately 20 % per h | above 10 μM |  |  |
| COc1cc2c(cc1OC)CN(CCc1ccc(NC(=O)c3cccc4c(=O)c5cccc(OC)c5[nH]c34)cc1)CC2 [elacridar] |  |  | inhibit | 70-80% |
